Data on 28 molecules can be found in patent publication US11208405B2, “Pyrrole derivatives as PLK1 inhibitors” (SENTINEL ONCOLOGY LIMITED, priority 2017, dated 2021).

Usually EC50 stands for the concentration needed to bring the measured effect to its halfway point. One may read the GI50 as the concentration at which growth is held to half of that of the control. Read a high GI50 as lower sensitivity of the cells.

The subject of one assay is HeLa cells. Put plainly: Arresting cells in mitosis (Mitotic Index, phosphorylated Histone H3 immunofluorescence). The format is cell-based. The settings on record: HeLa cell line, 24 hours; for EC50: Homo sapiens, Mitotic Index, read-out: EC50. Here is the method: Assay to Measure the Effects of Compounds of the Invention on Arresting Cells in Mitosis
Inhibiting the ability of PLK1 to bind to its phosphopeptide binding partners through the PBD causes cells to arrest in mitosis. Experimentally, this is measured by assessing the number of cells which are in mitosis at a certain time after treatment with a PLK1-PBD inhibitor by immunofluorescent detection of phosphorylated Histone H3 (pH3), a marker which is only present in mitotic cells. PLK1-PBD inhibitors are expected to cause a dose-dependent increase in pH3-positive cells, which is reported as Mitotic Index (MI)—the percentage of cells which, at a given time, are positive for this mitotic mark. The following protocol has been used to measure MI: • 1. Plate HeLa cells at 10,000/well in 100 μL/well in clear flat-bottom 96-well plates and incubate overnight. • 2. Immediately prior to treatment, dilute compounds in medium in a 96-well round-bottom plate. Make up all compounds at 5 times final desired concentration on cells, and serially dilute 1:2 across the plate ensuring that there is 100 μL of each concentration (start with 200 μl of the top concentration on the left of the plate). […] Treat cells by adding 25 μL from the compound dilution plate to triplicate wells. • 4. Incubate cells with compound for 24 hours. • 5. After 24 hours, fixation and staining is carried out as follows: • 6. Dilute 37% formaldehyde in PBS to give a 12.95% solution by adding 3.5 mL formaldehyde to 6.5 mL of PBS. • 7. Add 50 μL of formaldehyde fixation solution directly to each well of cells (which already contain 125 μL medium). • 8. Incubate at room temp for 10 minutes. • 9. Remove fixative and add 100 μL/well PBS+0.1% Triton X-100 for 10 minutes. • 10. Aspirate and add 100 μL/well PBS+1% BSA. • 11. Aspirate and add 50 μL/well of primary antibody (anti-PH3 [1:2000]/anti-MPM2 [1:1000]) diluted in PBS+1% BSA. Incubate for 1 hour. • 12. Wash×2 with 100 μL/well PBS+1% BSA. • 13. Add 50 μL/well of secondary antibody plus Hoechst stain (anti-rabbit Alexafluor 488 [1:500]; anti-mouse Alexafluor 546 [1:500]+Hoechst 33342 [1:2500 final concentration=4 μg/mL])diluted in PBS+1% BSA. Incubate for 1 hour. • 14. Wash twice with 100 μL/well PBS+1% BSA. • 15. Aspirate and add 100 μL/well PBS. Plates can be stored at 4° C. in PBS for several weeks before scanning on the Cellomics Arrayscan. […] Scan on Cellomics using Target Activation Bioapplication. • 17. MI data emerging from the Cellomic Bioapplication can be used to plot MI versus compound concentration, and subsequently used to generate an EC50 value for each compound using an appropriate graphing/curve-fitting package such as GraphPad Prism.

The test system of a further assay is HCT116 cells. Put plainly: Effects on HCT116 colorectal cancer cell viability (cell titre blue, 72 hours). The settings on record: Homo sapiens, HCT-116, HCT116 cell line. It is filed as cell-based. Here is the method:
Assay to Measure the Effects of Compounds of the Invention on HCT116 Colorectal Cancer Cell Viability
The following protocol was used to measure the effects of compounds of the invention on HCT116 cell viability.
1. HCT116 cells were grown in RPM11640 media supplemented with Glutamax and 10% FBS in a 37° C./5% CO2 incubator.
2. Growing culture of HCT116 cells were trypsinised, counted and diluted to give 10,000 cells/mL in an appropriate volume, allowing at least 6 mL of cells per plate.
3. 200 μL of PBS were added to all the outer wells of a flat-bottomed (8×12) 96-well TC plate. 100 μL of media were added only to wells in column 11 of the plates (these wells provided a blank for the cell titre blue assay). Two compounds were assayed on each plate.
4. 100 ul of 10,000 cells/mL HCT116s were plated in rows B-G of each plate.
5. The cells were incubated (37° C. 5% CO2) for 24 hours before treating with compounds.
6. An 8 mM compound stock in DMSO was prepared for all compounds to be tested. 2.5 μL of the compound stock was added to 1000 μL growth medium in a 96-well deep well block and serial dilutions were prepared across the plate by transferring 500 μL into wells containing 500 μL growth medium+0.25% DMSO to give eight concentrations of compound (this ensured a constant amount of DMSO at all concentrations of compound). When making up growth medium+DMSO, an amount of 5 ml was allowed per compound to be diluted.
7. 3 rows of cells were treated with 100 μL/well from each row on the dilution plate so that each cell plate is treated with a single compound. This gave a final volume in all wells of 200 μL and a titration of compound from a final concentration of 10 uM down to 78 nM.
8. The cells were incubated (37° C. 5% CO2) for 72 hours.
9. 5 ul cell titre blue reagent (Promega) were added to all wells except the edge wells (which contain PBS only) and incubated (37° C. 5% CO2) for 2.5-3 hours.
10. Fluorescence was measured on a suitable plate reader using a 530-570 nm filter set for excitation and a 580-620 nm filter set for fluorescence emission.
11. Data were analysed using an appropriate graphing package (such as GraphPad Prism). Data were expressed as the concentration of compound causing a 50% inhibition of cell viability or GI50.

Counter-ions that a name gives are not always drawn.

Turning to `CN(C)CCCOc1cccc(-c2ccc(-c3ccc(Br)cc3)n2-c2ccccc2C(F)(F)F)c1` [Example 17, 3-[3-[5-(4-Bromophenyl)-1-[2-(trifluoromethyl)phenyl]pyrrol-2-yl]phenoxy]-N,N-dimethyl-propan-1-amine Hydrochloride], in the assay on HeLa cells, the “% mitotic cells” value stood at 65% and the EC50 was 1450 nM. For `CN(C)Cc1cccc(-c2ccc(-c3ccc(Br)cc3)n2-c2ccccc2C(F)(F)F)c1` [Example 7, 1-[3-[5-(4-bromophenyl)-1-[2-(trifluoromethyl)phenyl]pyrrol-2-yl]phenyl]-N,N-dimethyl-methanamine Hydrochloride], in the assay with HeLa cells, the “% mitotic cells” value is 75% and the EC50 turned out to be 2200 nM. In addition, the GI50 in the assay on HCT116 cells came to 1060 nM. As for `CN(C)CCNC(=O)c1cccc(-c2ccc(-c3ccc(Br)cc3)n2-c2cnccc2C(F)(F)F)c1` [Example 6], in the assay with HeLa cells, the “% mitotic cells” value is listed as 86% and the EC50 came to 660 nM. In the assay with HCT116 cells, the GI50 was determined as 200 nM.

As for `CN(C)CCNC(=O)c1cccc(-c2ccc(-c3ccccc3)n2-c2ccccc2C(F)(F)F)c1` [Example 3, hydrochloride], in the assay on HeLa cells, the “% mitotic cells” value amounted to 65% and the EC50 is 1580 nM. In the case of `CN(C)CCNC(=O)C(C)(C)c1ccc(-c2ccc(-c3ccc(Cl)cc3)n2-c2ccccc2C(F)(F)F)cc1` [Example 107, hydrochloride], the GI50 with HCT116 cells is 160 nM. For the molecule `O=C(NCCN1CCOCC1)c1ccc(-n2ncc(-c3ccc(Cl)cc3)c2-c2ccccc2C(F)(F)F)cc1` [Example 104, hydrochloride], in the assay on HCT116 cells, the GI50 came out at 150 nM. For `CC(C)Cc1ccc(C(F)(F)F)c(-n2c(-c3ccc(Cl)cc3)ccc2-c2ccc(C(=O)NCCN(C)C)cc2)c1` [Example 63, hydrochloride], in the assay with HCT116 cells, halving of growth (GI50) required 1640 nM.

In the assay with HCT116 cells, `O=C(Cc1ccc(-c2ccc(-c3ccc(Cl)cc3)n2-c2ccccc2C(F)(F)F)cc1)NCCN1CCNCC1` [Example 101, hydrochloride] registered a GI50 of 60 nM.

For the molecule `CN(C)CCNC(=O)c1ccc(-c2ccc(-c3ccc(F)cc3F)n2-c2ccccc2C(F)(F)F)cc1` [Example 43], in the assay on HCT116 cells, it took 200 nM to inhibit growth by half (GI50). Molecule `CN(C)CC(=O)NCc1cccc(-c2ccc(-c3ccc(Br)cc3)n2-c2ccccc2C(F)(F)F)c1` [Example 21, N-[[3-[5-(4-Bromophenyl)-1-[2-(trifluoromethyl)phenyl]pyrrol-2-yl]phenyl]methyl]-2-(dimethylamino)acetamide Hydrochloride] yielded a GI50 in the assay on HCT116 cells of 1060 nM. For the molecule `CN(C)CCNC(=O)c1ccc(-c2[nH]nc(-c3ccc(Cl)cc3)c2-c2ccccc2C(F)(F)F)cc1` [Example 93, 4-[3-(4-chlorophenyl)-4-[2-(trifluoromethyl)phenyl]-1H-pyrazol-5-yl]-N-[2-(dimethylamino)ethyl] Benzamide Hydrochloride], the GI50 with HCT116 cells is 260 nM. For `CN(C)CCCNC(=O)c1ccc(-c2ccc(-c3ccc(Cl)cc3)n2-c2ncccc2C(F)(F)F)cc1` [Example 80, hydrochloride], the GI50 in the assay on HCT116 cells came to 3920 nM. As for `CN(C)CCNC(=O)Nc1ccc(-c2ccc(-c3ccc(Cl)cc3)n2-c2ccccc2C(F)(F)F)cc1` [Example 90, 1-[4-[5-(4-Chlorophenyl)-1-[2-(trifluoromethyl)phenyl]pyrrol-2-yl]phenyl]-3-[2-(dimethylamino)-ethyl]urea Hydrochloride], the GI50 in the assay with HCT116 cells stood at 500 nM. As to `CN1CCC(NC(=O)c2cccc(-c3ccc(-c4ccc(Br)cc4)n3-c3ccccc3C(F)(F)F)c2)C1` (stereo not shown) [Example 14, hydrochloride], in the assay on HeLa cells, the “% mitotic cells” value amounted to 68% and the EC50 was 830 nM.

`CN(C)CCOCc1ccc(-c2ccc(-c3ccc(Br)cc3)n2-c2ccccc2C(F)(F)F)cc1` [Example 45, 2-[[4-[5-(4-Bromophenyl)-1-[2-(trifluoromethyl)phenyl]pyrrol-2-yl]phenyl]methoxy]-N,N-dimethyl-ethanamine Hydrochloride]: in the assay on HCT116 cells, the GI50 came to 350 nM. As to `CC(C)Cc1ccc(C(F)(F)F)c(-n2c(-c3ccc(Cl)cc3)ccc2-c2ccc(C(=O)NCCCN(C)C)cc2)c1` [Example 64, hydrochloride], the GI50 with HCT116 cells stood at 1700 nM. `NS(=O)(=O)c1ccc(-c2ccc(-c3ccc(Br)cc3)n2-c2ccccc2C(F)(F)F)cc1` [Example 65, 4-[5-(4-bromophenyl)-1-[2-(trifluoromethyl)phenyl]pyrrol-2-yl]benzenesulfonamide] gave a GI50 with HCT116 cells of 1960 nM.

In the case of `CN(C)CCNC(=O)c1ccc(Cl)c(-c2ccc(-c3ccc(Br)cc3)n2-c2ccccc2)c1` [Example 19, hydrochloride], growth in the assay with HCT116 cells was halved (GI50) at 4210 nM.

Take `CN(C)CCNCc1cccc(-c2ccc(-c3ccc(Br)cc3)n2-c2ccccc2C(F)(F)F)c1` [Example 18, hydrochloride]: in the assay with HeLa cells, the “% mitotic cells” value turned out to be 67% and the EC50 amounted to 1640 nM. On to `CN(C)CCNC(=O)c1cccc(-c2ccc(-c3ccc(Br)cc3)n2-c2ccc(Cl)cc2C(F)(F)F)c1` [Example 4, hydrochloride], for which, in the assay with HeLa cells, the “% mitotic cells” value is 65% and the EC50 is 550 nM.

`CN(C)CCCNc1cccc(-c2ccc(-c3ccc(Br)cc3)n2-c2ccccc2C(F)(F)F)c1` [Example 16, N-[3-[5-(4-Bromophenyl)-1-[2-(trifluoromethyl)phenyl]pyrrol-2-yl]phenyl]-N′,N′-dimethyl-propane-1,3-diamine Hydrochloride]: growth with HCT116 cells was halved (GI50) at 2720 nM.

Molecule `COc1ccc(C(=O)NCCN(C)C)cc1-c1ccc(-c2ccc(Br)cc2)n1-c1ccccc1` [Example 20, hydrochloride] yielded a GI50 in the assay with HCT116 cells of 3940 nM. Take `COc1ccc(C(=O)NCCN(C)C)cc1-c1ccc(-c2ccc(Br)cc2)n1-c1ccccc1C(F)(F)F` [Example 52, hydrochloride]: halving of growth in the assay on HCT116 cells (GI50) required 350 nM. In the case of `CN(C)CCNC(=O)c1ccc(-c2ccc(-c3ccc(C#N)nc3)n2-c2ccccc2C(F)(F)F)cc1` [Example 66, hydrochloride], the GI50 in the assay on HCT116 cells amounted to 890 nM. Take `CN(C)CCN(C)C(=O)c1ccc(-c2ccc(-c3ccc(Cl)cc3)n2-c2ccccc2C(F)(F)F)cc1` [Example 83, hydrochloride]: the GI50 in the assay on HCT116 cells stood at 60 nM. `CN(C)CCNC(=O)c1ccc(-c2ccc(-c3cccc(Cl)c3)n2-c2ccccc2C(F)(F)F)cc1` [Example 72, hydrochloride]: the GI50 with HCT116 cells stood at 1730 nM. With `CN(C)CCNC(=O)c1ccc(-c2ccc(-c3ccc(Cl)cc3)n2-c2ccc(Cl)cc2C(F)(F)F)cc1` [Example 98, hydrochloride], in the assay on HCT116 cells, the GI50 is 20 nM.

On to `O=C(NCCN1CCOCC1)c1ccc(-c2ccc(-c3ccc(Cl)cc3)n2-c2ccccc2C(F)(F)F)cc1` [Example 95, hydrochloride], for which the GI50 in the assay on HCT116 cells came out at 80 nM.
